# In US20060122147A1, “Combination preparation of hyaluronic acid and at least oe local anesthetic and the use thereof” (priority 2002, published 2006):
# Like-named read-outs stand apart in the source and are kept apart here.
# Settings: 37° C., diffusion time 4 h, lidocaine 0.05% (hya 0.25% where present) in donor compartment
smiles,measurement,setting,value
CCN(CC)CC(=O)Nc1c(C)cccc1C [lidocaine],Flux,pH 3.1,0.32 mg h^−1 cm^−2
same,Flux,pH 6.0,0.355 mg h^−1 cm^−2
same,Flux,pH 6.5,0.315 mg h^−1 cm^−2
same,Flux,pH 6.9,0.42 mg h^−1 cm^−2
same,Flux,pH 7.7,0.35 mg h^−1 cm^−2
same,Flux,pH 9.0,0.09 mg h^−1 cm^−2
